These results are taken from article PMC11050532, “The Inhibition Activity of Natural Methoxyflavonoid from Inula britannica on Soluble Epoxide Hydrolase and NO Production in RAW264.7 Cells” (International Journal of Molecular Sciences, 2024).

The test system of data set [1] is sEH. As to conditions: cited from earlier work; for inhibition mode: sEH.
On the set-up of data set [2]: method as in PMID 23020295. As to conditions: cited from earlier work.
Data set [3] deals with mice with angiotensin-II-induced hypertension. More on the design: method as in PMID 15699457. As to conditions: cited from earlier work.
The subject of data set [4] is NO production by poly(I:C)-induced RAW264.7 cells. The data set can be described thus: Nitric oxide assay (Griess method). As to conditions: for NO production: 10 µM compound, induced control 19.0 ± 1.5 µM, unstimulated ~0.91 µM; for inhibition at 10 µM: Mus musculus, RAW264.7, poly(I:C)-stimulated cells. In kind it is cell-based. The protocol: The activity of compounds 1–5 with respect to NO production by poly(I:C)-induced RAW264.7 cells was evaluated by measuring the amount of nitrite that accumulated in the culture medium using the Griess method. When tested at a concentration 10 µM, none of the compounds affected the viability of RAW264.7 cells. In unstimulated RAW264.7 cells, NO production was ~ 0.91 µM, whereas in poly(I:C)-induced cells, it was 19.0 ± 1.5 µM. In induced cells simultaneously treated with compounds 1–5 at a concentration of 10 µM, NO production was 12.5 ± 0.1, 9.6 ± 0.2, 4.0 ± 0.2, 7.0 ± 0.3, and 13.9 ± 0.8 µM, respectively (Figure 5).
RAW264.7 macrophages were initially cultured as described above and then pretreated for 2 h with 10 µM of the candidate inhibitor. Then, they were stimulated with 1 µg LPS /mL for 24 h. Then, 100 µL each of supernatant and Griess reagent were added to the plate. The absorbance at 450 nm was measured as described.

Data set [5] deals with T1, sEH (Homo sapiens, UniProt P34913).
T1 construct: purchased Cayman Chemical 10011669
T1 sequence (P34913 1-555): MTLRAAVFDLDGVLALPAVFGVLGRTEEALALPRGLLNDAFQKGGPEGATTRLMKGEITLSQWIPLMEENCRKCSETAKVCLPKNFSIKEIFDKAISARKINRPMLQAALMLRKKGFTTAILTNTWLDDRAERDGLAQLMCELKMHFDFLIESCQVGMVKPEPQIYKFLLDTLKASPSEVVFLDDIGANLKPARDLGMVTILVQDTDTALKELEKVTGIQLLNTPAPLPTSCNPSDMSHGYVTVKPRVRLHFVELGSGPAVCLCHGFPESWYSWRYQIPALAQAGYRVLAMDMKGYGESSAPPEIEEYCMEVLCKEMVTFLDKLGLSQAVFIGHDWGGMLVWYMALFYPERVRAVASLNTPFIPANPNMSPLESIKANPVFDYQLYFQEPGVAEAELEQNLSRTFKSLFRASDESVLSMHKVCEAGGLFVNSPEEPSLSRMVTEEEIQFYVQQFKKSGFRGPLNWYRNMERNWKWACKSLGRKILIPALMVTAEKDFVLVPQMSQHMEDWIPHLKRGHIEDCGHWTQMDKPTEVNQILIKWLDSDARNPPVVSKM
The data set can be described thus: sEH enzyme kinetics (Lineweaver–Burk and Dixon plots). In kind it is biochemical. As to conditions: for Ki: calculated from the Dixon plot; for Binding Mode: substrate 3.1–50 µM, Lineweaver–Burk plot. The procedure:
Determinations of enzyme kinetics yield insights into the interactions between inhibitors and enzymes. In such studies, the changes in the initial velocity (v0) of the enzymatic reaction induced by the inhibitor depending on the substrate concentration are monitored. To investigate the effects of the five flavonoids (1–5) on sEH, a substrate concentration of 3.1–50 µM was used. […] The ki values calculated from the Dixon plot were 43.9, 19.8, 17.5, 63.5, and 68.7 µM, respectively (Figure 2G–K).
In 96-well plates, 20 µL of isolated compounds […] in methanol was mixed with 100 µL of 25 mM Tris–HCl (pH 7.0) buffer containing 0.1% BSA, followed by adding 30 µL of 1.0 µg/mL sEH and then 50 µL of 40 μM PHOME. The reaction product was measured using a fluorescent photometer (excitation filter: 330 nm, emission filter: 465 nm).

For data set [6], the target named is T1, sEH. The data set can be described thus: sEH activity assay (PHOME fluorescence). As to conditions: triplicate, six concentrations. In kind it is biochemical. The procedure:
^1H (400 MHz) and ^13C (100 MHz) nuclear magnetic resonance (NMR) spectra were obtained using a Bruker DRX-400 spectrometer (Bruker, Billerica, MA, USA) with tetramethylsilane as the internal standard. Thin-layer chromatography (TLC) was performed on pre-coated silica gel 60 F254 (0.25 mm; Merck, Rahway, NJ, USA) and reversed-phase-18 F254s plates (0.25 mm; Merck). Column chromatography was performed using a silica gel (60 A, 70–230, or 230–400 mesh ASTM; Merck, Germany) and reversed-phase silica gel (ODS-A, S-75 μm; YMC, Kyoto, Japan). […] Greiss reagent and lipopolysaccharide (LPS) were purchased from Sigma-Aldrich (St. Louis, MO, USA). Dulbecco’s modified Eagle medium (DMEM) and fetal bovine serum were purchased from Gibco (Grand Island, NY, USA). Penicillin/streptomycin antibiotics came from Invitrogen (Carlsbad, CA, USA).
Inhibitor efficiency (%) was calculated as shown in Equation (1):Inhibitory activity = 100 − [(I4_0 − I0)/(M40 − M0)] × 100(1) where I40 and M40 are the fluorescence of the candidate inhibitor (I) and methanol (M) after 40 min, and I0 and M0 are the fluorescence of I and M at 0 min, respectively.

The subject of data set [7] is LPS-activated THP-1 cells. More on the design: method as in PMID 27177082. As to conditions: cited from earlier work.
A further data set concerns arthritic rats. More on the design: method as in PMID 27177082. As to conditions: cited from earlier work.

Consider `C=C(C)[C@@H](O)[C@@H](O)C[C@@H](C)C1=C2CC[C@H]3[C@@]4(C)CCC(=O)C(C)(C)[C@@H]4CC[C@]3(C)[C@@]2(C)CC1` [11-deoxy-25-anhydroalisol E], for which the “sEH inhibition (in words)” value with sEH [1] is “considerable inhibitory effects on sEH”.

For `O=C(O)CCCCCCCCCCCNC(=O)NC12CC3CC(CC(C3)C1)C2` [AUDA, 12-(3-adamantan-1-yl-ureido) dodecanoic acid], the metabolism in vivo entry in data set [2] was “rapid metabolism in vivo”. Besides, in data set [3], the blood pressure entry is given as “effective for lowering blood pressure”.

As for `COc1ccc(-c2oc3cc(OC)c(OC)c(O)c3c(=O)c2O)cc1O` [Compound 1, eupatin], the NO production in data set [4] is 12.5 ± 0.1 µM. Further, the Ki on sEH [5] is 43.9 µM. Further, the “Binding Mode” value on sEH [5] is recorded as “non-competitive”; at sEH [5] (listed as eupatin), “noncompetitive”. Also, the IC50 on sEH [6] worked out at 42.6 ± 0.8 µM.

Take `COc1c(O)cc2oc(-c3ccc(O)cc3)cc(=O)c2c1O` [Compound 2, hispidulin]: in data set [4], the NO production was 9.6 ± 0.2 µM. Moreover, on sEH [5], the Ki was 19.8 µM and the “Binding Mode” value is “non-competitive”. Besides, at sEH [5] (listed as hispidulin), the “Binding Mode” value was “noncompetitive”. On sEH [6], this compound displayed a concentration for half-maximal inhibition (IC50) of 22.2 ± 0.3 µM.

In data set [4], `COc1c(O)cc2oc(-c3ccc(O)c(O)c3)c(O)c(=O)c2c1O` [Compound 3, patuletin] had an NO production of 4.0 ± 0.2 µM and an inhibition at 10 µM of over 50%. Besides, on sEH [5], the Ki was 17.5 µM and the “Binding Mode” value was “non-competitive”. Besides, the “Binding Mode” value at sEH [5] (listed as patuletin) was “noncompetitive”. On sEH [6], this compound had an IC50 of 12.1 ± 0.1 µM. In addition, the “TNF-α and IL-1β levels” value in data set [7] was “decrease TNF-α and IL-1β levels”. Besides, the “TNF-α and IL-1β levels” value in the data set with arthritic rats is “decrease TNF-α and IL-1β levels”.

`COc1c(O)cc2oc(-c3ccc(O)c(O)c3)cc(=O)c2c1O` [Compound 4, nepetin]: in data set [4], the NO production was 7.0 ± 0.3 µM and the inhibition at 10 µM was over 50%. In addition, on sEH [5], the Ki was 63.5 µM and the “Binding Mode” value is “non-competitive”. Further, the “Binding Mode” value on sEH [5] (listed as nepetin) is “noncompetitive”. On sEH [6], this compound came in with an IC50 of 40.9 ± 0.6 µM.

`COc1cc(-c2oc3cc(O)cc(O)c3c(=O)c2OC2OC(CO)C(O)C(O)C2O)ccc1O` (stereo not shown) [Compound 5, isorhametin-3-O-glucoside]: the NO production in data set [4] is on record as 13.9 ± 0.8 µM. Further, the Ki at sEH [5] was 68.7 µM. Besides, the figures for the “Binding Mode” value on sEH [5] and on sEH [5] (listed as isorhametin-3-O-glucoside) were “non-competitive” and “noncompetitive”, respectively. At sEH [6], the IC50 stood at 62.8 ± 1.8 µM.

Consider `COc1cc(-c2cc(=O)c3c(O)cc(O)cc3o2)ccc1O` [chrysoeriol], for which the inhibition mode entry in the data set with sEH [1] is recorded as “non-competitive”.

For the compound `COc1cc(-c2oc3cc(O[C@@H]4O[C@H](CO)[C@@H](O)[C@H](O)[C@H]4O)cc(O)c3c(=O)c2O)ccc1O` [isorhamnetin-7-O-glucopyranoside], the inhibition mode result in the data set with sEH [1] was “non-competitive”.

On to `O=c1c(O)c(-c2ccc(O)cc2)oc2cc(O)cc(O)c12` [kaempferol], for which the “sEH inhibition (in words)” value in the data set on sEH [1] is “potent sEH inhibitors”.

Turning to `O=c1cc(-c2ccc(O)c(O)c2)oc2cc(O[C@@H]3O[C@H](CO)[C@@H](O)[C@H](O)[C@H]3O)cc(O)c12` [luteolin-7-O-glucopyranoside], the inhibition mode result with sEH [1] is “non-competitive”.

As for `O=c1c(O)c(-c2ccc(O)c(O)c2)oc2cc(O)cc(O)c12` [quercetin], the “sEH inhibition (in words)” value in the data set on sEH [1] is given as “potent sEH inhibitors”.
